Assays:
[1] = system: rabbit serum obtained by immunizing a rabbit with the SARS-CoV strain Frankfurt 1; format: binding; design: Binding of a rabbit serum to linear peptides / Binding of a rabbit serum to looped peptides / Rabbit serum linear peptides / Rabbit serum looped peptides / Binding of a rabbit serum to linear peptides of protein N of SARS-CoV Urbani (Rabbit serum linear peptides) / Binding of a rabbit serum to looped/cyclic peptides of protein N of SARS-CoV Urbani (Rabbit serum looped peptides): unit not given here
[2] = system: recombinant human anti-SARS-CoV antibody 03-018; format: binding; design: Binding of antibody 03-018 to linear peptides of the N protein of SARS-CoV Urbani / Binding of antibody 03-018 to looped/cyclic peptides of the N protein of SARS-CoV Urbani: unit not given here

| Sequence | Binding of a rabbit serum to linear peptides of protein N of SARS-CoV Urbani (Rabbit serum linear peptides) [1] | Binding of a rabbit serum to looped/cyclic peptides of protein N of SARS-CoV Urbani (Rabbit serum looped peptides) [1] | Binding of antibody 03-018 to linear peptides of the N protein of SARS-CoV Urbani [2] | Binding of antibody 03-018 to looped/cyclic peptides of the N protein of SARS-CoV Urbani [2] |
| --- | --- | --- | --- | --- |
| AATVLQLPQGTTLPK | 0.3 | 1.2 | 0.1 | 0.2 |
| DPQFKDNVILLNKHI | 0.2 | 0.7 | 0.1 | 0.3 |
| KDPQFKDNVILLNKH | 0.2 | 0.5 | 0.1 | 0.2 |
| LDDKDPQFKDNVILL | 0.1 | 0.2 | 0.1 | 0.3 |

— patent US20070128217A1 (priority 2003, published 2007)
